Literature values as cited in paper PMC8138767, “Intrinsically disordered substrates dictate SPOP subnuclear localization and ubiquitination activity” (The Journal of Biological Chemistry, 2021).

Legend:
SPOP = settings: in phase-separated droplets in cells; cited from earlier work
From the text: SPOP derives its name from the […]. Specifically, SPOP colocalizes with nuclear speckles but has also been reported in other subnuclear compartments ([24], [26]). The nuclear speckles that house SPOP in the absence of high concentrations of substrate are liquid-like in nature ([21]). The SPOP substrate DAXX typically localizes to promyelocytic leukemia bodies ([27]).

SPOP28–359 = target: T1, SPOP28–359 (Homo sapiens, UniProt O43791); settings: substrates with six (DAXX) and seven (AR) SB motifs; cited from earlier work
T1 construct: A plasmid encoding His–SUMO–SPOP human residues 28 to 359; His-SUMO (N, cleaved yes); made in house; host or cells: E. coli Rosetta BL-21(DE3)
From the text: We next sought to assess the role of SPOP oligomerization in the SPOP–Pdx1 interaction and saw a near 10-fold enhancement in binding affinity of Pdx1 to oligomeric SPOP28–359 compared with SPOP–MATH (Fig. 5B and Table S4) in agreement with previous similar observations ([22], [23]). Concentration-dependent SPOP self-association results in an ensemble of oligomeric species with sizes spanning from dimers to large multimers ([21]). SPOP substrates DAXX and AR are also multivalent for SPOP; they contain six and seven SB motifs, respectively, which dramatically enhances their affinities for SPOP28 ...

T1 sequence (O43791 28-359): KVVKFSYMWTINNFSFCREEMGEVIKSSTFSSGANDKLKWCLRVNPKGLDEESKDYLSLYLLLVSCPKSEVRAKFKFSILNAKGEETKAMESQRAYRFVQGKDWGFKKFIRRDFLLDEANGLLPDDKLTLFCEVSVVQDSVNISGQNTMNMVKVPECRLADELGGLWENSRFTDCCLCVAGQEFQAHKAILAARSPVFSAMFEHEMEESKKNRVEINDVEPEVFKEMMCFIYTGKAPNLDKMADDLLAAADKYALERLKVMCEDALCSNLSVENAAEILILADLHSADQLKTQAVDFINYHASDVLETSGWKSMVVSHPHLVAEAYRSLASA

AR: androgen receptor, SPOP substrate with seven SB motifs
SPOP-mediated polyubiquitination in cells (SPOP): robust SPOP-mediated polyubiquitination
affinity for SPOP28–359 relative to SPOP–MATH (SPOP28–359): dramatically enhances their affinities for SPOP28–359 relative to SPOP–MATH
